# Measured values: patent US20250326785A1, “SODIUM SALT AND ETHANOLAMINE SALT OF 23-HYDROXYTORMENTIC ACID” (HUYABIO International, LLC, priority 2024, published 2025)
# Where two headings read alike, the source gives them in different places.
# How the values were obtained:
# [1] = Hydration study in methanol/water aw 0.1, 0.5 and 0.9; format: physicochemical
# Description: Hydration studies of ethanolamine salt.
# [2] = Stability study at 25° C./60% RH, 40° C./75% RH and 60° C. (XRPD, HPLC purity, impurity tracking); settings: for XRPD: number = sodium salt XRPD Pattern; for RRT 0.801 / RRT 0.970 / RRT 1.000 (HBI-3808) / RRT 1.025 (Isomer of HBI-3808) / Total Impurities / RRT 1.935 / RRT 1.767: impurity tracking
# Description: Stability of HBI-3808 Sodium Salt Pattern 2 was studied over 13 weeks.
# Table 2F presents impurity tracking results from a 13-week stability study of HBI-3808 sodium salt of Pattern 2. […]
# [3] = Dynamic vapor sorption (DVS) analysis; format: physicochemical
# Method: GC analysis indicated residual solvent contents of 2847 ppm methanol; and 27 ppm TBME. […] No residual methanol or TBME was detected due to signal over-lap. […] TG-DSC analysis indicated two weight losses. The first weight loss of 2.3 wt. % was observed between 20-170° C. […] In the DSC thermogram, three endothermic events were observed (FIG. 17I). […] FT-IR (FIG. 17J) and Raman spectra (FIG. 17K) were recorded for reference. […] XRPD pattern of the ethanolamine salt was retained post-DVS (FIG. 17N). […] However, at the end of the experiment the solids on the microscope slide had discolored (FIG. 17O).
# [4] = for HPLC Conc./: based on free acid
# Description: pH-dependent solubility of the HBI- 3808 sodium salt of Pattern 2 was studied.
# pH dependent solubility of the HBI- 3808 sodium salt of Pattern 5 was studied.
# [5] = Varying humidity (VH)-XRPD; format: physicochemical; settings: 30° C.
# Method: During the sorption phase, sodium salt Pattern 2 was observed between 40-60% RH. […] A mixture of sodium salt Pattern 2 and 5 was also observed at 80% RH. […] During the second desorption, from 90% RH to 40% RH, sodium salt Pattern 5 was maintained.
# VH-XRPD analysis was carried out between 40-0% RH (FIG. 5L).
# [6] = Salt disproportionation study (slurry in water, XRPD of solids, pH of mother liquor); format: physicochemical; settings: for XRPD of recovered solids: ca. 24 h at 25° C.
# Method: The pH of the filtered mother liquor was 9.77.
# Salt disproportionation studies of ethanolamine salt. […] The pH of the filtered mother liquor was 8.65.
# Method: 40 mg of sodium salt of HBI-3808 having a XRPD of Pattern 2, was weighed into a 2 mL push cap vial and a stirrer bar added. 0.2 mL of water was added to the vial and the experiment was stirred for ca. 24 h at 25° C. After 24 h the slurry was filtered by centrifuge filtration and the recovered solids were analyzed by XRPD. The pH of the filtered mother liquor was measured.
# [7] = 40° C./75% RH (open vial), 2 Weeks
# [8] = 40° C./75% RH (open vial), 4 Weeks
# [9] = 40° C./75% RH (open vial), 8 Weeks
# [10] = 40° C./75% RH (open vial), 13 Weeks
structure (smiles),measurement,setting,value
"CC1CCC2(C(=O)[O-])CCC3(C)C(=CCC4C5(C)CC(O)C(O)C(C)(CO)C5CCC43C)C2C1(C)O.[Na+] (centres unmarked) [HBI-3808 sodium salt of Pattern 2, sodium salt of 23-hydroxytormentic acid]",XRPD of solids recovered at the end of the experiment,[1],consistent with sodium salt Pattern 2
same,HPLC/ % area,"[2]; 25° C./60% RH (open vial), 1 Week",97.3 % area
same,HPLC/ % area,"[2]; 25° C./60% RH (open vial), 2 Weeks",97.2 % area
same,HPLC/ % area,"[2]; 25° C./60% RH (open vial), 4 Weeks",97.3 % area
same,HPLC/ % area,"[2]; 25° C./60% RH (open vial), 8 Weeks",96.7 % area
same,HPLC/ % area,"[2]; 25° C./60% RH (open vial), 13 Weeks",97.1 % area
same,HPLC/ % area,"[2]; 40° C./75% RH (open vial), 1 Week",97.1 % area
same,HPLC/ % area,[2]; [7],97.0 % area
same,XRPD,[2]; [7],5
same,HPLC/ % area,[2]; [8],97.3 % area
same,XRPD,[2]; [8],5
same,HPLC/ % area,[2]; [9],96.3 % area
same,XRPD,[2]; [9],5
same,HPLC/ % area,[2]; [10],97.0 % area
same,XRPD,[2]; [10],5
same,HPLC/ % area,"[2]; 60° C. (closed vial), 1 Week",97.2 % area
same,XRPD,"[2]; 60° C. (closed vial), 1 Week",2
same,HPLC/ % area,"[2]; 60° C. (closed vial), 2 Weeks",97.3 % area
same,XRPD,"[2]; 60° C. (closed vial), 2 Weeks",2
same,HPLC/ % area,"[2]; 60° C. (closed vial), 4 Weeks",97.3 % area
same,XRPD,"[2]; 60° C. (closed vial), 4 Weeks",2
same,HPLC/ % area,"[2]; 60° C. (closed vial), 8 Weeks",96.4 % area
same,XRPD,"[2]; 60° C. (closed vial), 8 Weeks",2
same,HPLC/ % area,"[2]; 60° C. (closed vial), 13 Weeks",97.3 % area
same,change in chemical purity by HPLC over the stability study,"[2]; all conditions (25° C./60% RH; 40° C./75% RH; 60° C.), 13 weeks (Pattern 5: 4 weeks)",no significant decrease in chemical purity
same,RRT 0.801,"[2]; 25° C./60% RH, 1 week",0.10 % area
same,RRT 0.970,"[2]; 25° C./60% RH, 1 week",0.10 % area
same,RRT 1.000 (HBI-3808),"[2]; 25° C./60% RH, 1 week",97.31 % area
same,RRT 1.025 (Isomer of HBI-3808),"[2]; 25° C./60% RH, 1 week",2.48 % area
same,Total Impurities,"[2]; 25° C./60% RH, 1 week",2.69 % area
same,RRT 0.970,"[2]; 25° C./60% RH, 2 weeks",0.12 % area
same,RRT 1.000 (HBI-3808),"[2]; 25° C./60% RH, 2 weeks",97.29 % area
same,RRT 1.025 (Isomer of HBI-3808),"[2]; 25° C./60% RH, 2 weeks",2.39 % area
same,RRT 1.935,"[2]; 25° C./60% RH, 2 weeks",0.20 % area
same,Total Impurities,"[2]; 25° C./60% RH, 2 weeks",2.71 % area
same,RRT 0.970,"[2]; 25° C./60% RH, 4 weeks",0.11 % area
same,RRT 1.000 (HBI-3808),"[2]; 25° C./60% RH, 4 weeks",97.47 % area
same,RRT 1.025 (Isomer of HBI-3808),"[2]; 25° C./60% RH, 4 weeks",2.41 % area
same,Total Impurities,"[2]; 25° C./60% RH, 4 weeks",2.53 % area
same,RRT 0.970,"[2]; 25° C./60% RH, 8 weeks",0.10 % area
same,RRT 1.000 (HBI-3808),"[2]; 25° C./60% RH, 8 weeks",96.99 % area
same,RRT 1.025 (Isomer of HBI-3808),"[2]; 25° C./60% RH, 8 weeks",2.51 % area
same,RRT 1.767,"[2]; 25° C./60% RH, 8 weeks",0.29 % area
same,Total Impurities,"[2]; 25° C./60% RH, 8 weeks",3.01 % area
same,RRT 0.801,"[2]; 25° C./60% RH, 13 weeks",0.12 % area
same,RRT 1.000 (HBI-3808),"[2]; 25° C./60% RH, 13 weeks",97.33 % area
same,RRT 1.025 (Isomer of HBI-3808),"[2]; 25° C./60% RH, 13 weeks",2.37 % area
same,RRT 1.935,"[2]; 25° C./60% RH, 13 weeks",0.19 % area
same,Total Impurities,"[2]; 25° C./60% RH, 13 weeks",2.67 % area
same,RRT 0.801,"[2]; 40° C./75% RH, 1 week",0.10 % area
same,RRT 0.970,"[2]; 40° C./75% RH, 1 week",0.14 % area
same,RRT 1.000 (HBI-3808),"[2]; 40° C./75% RH, 1 week",97.28 % area
same,RRT 1.025 (Isomer of HBI-3808),"[2]; 40° C./75% RH, 1 week",2.48 % area
same,Total Impurities,"[2]; 40° C./75% RH, 1 week",2.72 % area
same,RRT 0.970,"[2]; 40° C./75% RH, 2 weeks",0.12 % area
same,RRT 1.000 (HBI-3808),"[2]; 40° C./75% RH, 2 weeks",97.26 % area
same,RRT 1.025 (Isomer of HBI-3808),"[2]; 40° C./75% RH, 2 weeks",2.40 % area
same,RRT 1.935,"[2]; 40° C./75% RH, 2 weeks",0.22 % area
same,Total Impurities,"[2]; 40° C./75% RH, 2 weeks",2.74 % area
same,RRT 0.970,"[2]; 40° C./75% RH, 4 weeks",0.11 % area
same,RRT 1.000 (HBI-3808),"[2]; 40° C./75% RH, 4 weeks",97.5 % area
same,RRT 1.025 (Isomer of HBI-3808),"[2]; 40° C./75% RH, 4 weeks",2.41 % area
same,Total Impurities,"[2]; 40° C./75% RH, 4 weeks",2.52 % area
same,RRT 0.970,"[2]; 40° C./75% RH, 8 weeks",0.21 % area
same,RRT 1.000 (HBI-3808),"[2]; 40° C./75% RH, 8 weeks",96.88 % area
same,RRT 1.025 (Isomer of HBI-3808),"[2]; 40° C./75% RH, 8 weeks",2.51 % area
same,RRT 1.767,"[2]; 40° C./75% RH, 8 weeks",0.40 % area
same,Total Impurities,"[2]; 40° C./75% RH, 8 weeks",3.12 % area
same,RRT 1.000 (HBI-3808),"[2]; 40° C./75% RH, 13 weeks",97.41 % area
same,RRT 1.025 (Isomer of HBI-3808),"[2]; 40° C./75% RH, 13 weeks",2.40 % area
same,RRT 1.935,"[2]; 40° C./75% RH, 13 weeks",0.20 % area
same,Total Impurities,"[2]; 40° C./75% RH, 13 weeks",2.59 % area
same,RRT 0.801,"[2]; 60° C., 1 week",0.12 % area
same,RRT 1.000 (HBI-3808),"[2]; 60° C., 1 week",97.46 % area
same,RRT 1.025 (Isomer of HBI-3808),"[2]; 60° C., 1 week",2.43 % area
same,Total Impurities,"[2]; 60° C., 1 week",2.54 % area
same,RRT 0.970,"[2]; 60° C., 2 weeks",0.12 % area
same,RRT 1.000 (HBI-3808),"[2]; 60° C., 2 weeks",97.27 % area
same,RRT 1.025 (Isomer of HBI-3808),"[2]; 60° C., 2 weeks",2.41 % area
same,RRT 1.935,"[2]; 60° C., 2 weeks",0.20 % area
same,Total Impurities,"[2]; 60° C., 2 weeks",2.73 % area
same,RRT 0.970,"[2]; 60° C., 4 weeks",0.11 % area
same,RRT 1.000 (HBI-3808),"[2]; 60° C., 4 weeks",97.49 % area
same,RRT 1.025 (Isomer of HBI-3808),"[2]; 60° C., 4 weeks",2.40 % area
same,Total Impurities,"[2]; 60° C., 4 weeks",2.51 % area
same,RRT 0.970,"[2]; 60° C., 8 weeks",0.12 % area
same,RRT 1.000 (HBI-3808),"[2]; 60° C., 8 weeks",97.04 % area
same,RRT 1.025 (Isomer of HBI-3808),"[2]; 60° C., 8 weeks",2.49 % area
same,RRT 1.767,"[2]; 60° C., 8 weeks",0.35 % area
same,Total Impurities,"[2]; 60° C., 8 weeks",2.96 % area
same,RRT 1.000 (HBI-3808),"[2]; 60° C., 13 weeks",97.41 % area
same,RRT 1.025 (Isomer of HBI-3808),"[2]; 60° C., 13 weeks",2.41 % area
same,RRT 1.935,"[2]; 60° C., 13 weeks",0.18 % area
same,Total Impurities,"[2]; 60° C., 13 weeks",2.59 % area
same,RRT 1.000 (HBI-3808),[2]; T = 0,97.82 % area
same,RRT 1.025 (Isomer of HBI-3808),[2]; T = 0,2.18 % area
same,Total Impurities,[2]; T = 0,2.18 % area
same,input purity by HPLC,[2]; input material of the stability study (baseline),97.2 % area
same,XRPD of recovered material post-DVS,[3],consistent with sodium salt of Pattern 5
same,reversibility of mass uptake/loss,[3]; Pattern 2: second DVS cycle,reversible
same,water (mass) uptake,[3]; at 80% RH/25° C. (Pattern 2: second DVS cycle),0.8 wt. %
same,irreversible mass loss,[3]; first sorption cycle between 60-80% RH,about 2.4 wt. %
same,final Measured pH,[4]; FaSSGF,9.35
same,HPLC Conc./,[4]; FaSSGF,>221.2 mg/mL
same,concentration,[4]; pH 1.2,< 100 µg/mL
same,HPLC Conc./,"[4]; target pH 1.2 chloride buffer, start 200 mg/mL (ethanolamine salt 100 mg/mL)",<0.005 mg/mL
same,HPLC Conc./,[4]; target pH 3.0 acetate buffer,0.006 mg/mL
same,HPLC Conc./,[4]; target pH 4.0 acetate buffer,<0.005 mg/mL
same,HPLC Conc./,[4]; target pH 6.8 phosphate buffer,0.4 mg/mL
same,HPLC Conc./,[4]; target pH 8.0 phosphate buffer,15.3 mg/mL
same,XRPD pattern during desorption,[5]; 40-0% RH,no change in XRPD Pattern
same,XRPD pattern during sorption,[5]; at 70% RH,composite XRPD diffractogram of sodium salt Pattern 2 and 5
same,XRPD pattern during sorption,[5]; at 90% RH,only sodium salt Pattern 5 was observed
same,pH of the filtered mother liquor,[6],9.77
same,XRPD of recovered solids,[6],consistent with HBI-3808 sodium salt of Pattern 5
same,XRPD of recovered solids,[6]; listed as sodium salt of HBI-3808 having a XRPD of Pattern 2,consistent with sodium salt of HBI-3808 having a XRPD of pattern 5
